Test results: PubChem BioAssay (NCI)
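These data come from cells grown in 96-well plates and exposed to compound for 48 hours at five concentrations. GI50 is the concentration that inhibits growth by half. At the TGI there is no net growth.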

Legend:
Experiment in all cases: NCI tumour cell line growth inhibition, 48 h
[1] = tested on: 786-0 renal
[2] = tested on: A498 renal
[3] = tested on: A549 NSCLC
[4] = tested on: ACHN renal
[5] = tested on: BT-549 breast
[6] = tested on: CAKI-1 renal
[7] = tested on: CCRF-CEM leukemia
[8] = tested on: COLO 205 colon
[9] = tested on: DU-145 prostate
[10] = tested on: EKVX NSCLC
[11] = tested on: HCC-2998 colon
[12] = tested on: HCT-116 colon
[13] = tested on: HCT-15 colon
[14] = tested on: HL-60(TB) leukemia
[15] = tested on: HOP-62 NSCLC
[16] = tested on: HOP-92 NSCLC
[17] = tested on: HS 578T breast
[18] = tested on: IGROV1 ovarian
[19] = tested on: K-562 leukemia
[20] = tested on: KM12 colon
[21] = tested on: LOX IMVI melanoma
[22] = tested on: M14 melanoma
[23] = tested on: MCF7 breast
[24] = tested on: MDA-MB-231 breast
[25] = tested on: MDA-MB-435
[26] = tested on: MOLT-4 leukemia
[27] = tested on: NCI-H226 lung
[28] = tested on: NCI-H23 lung
[29] = tested on: NCI-H460 lung
[30] = tested on: NCI-H522 lung
[31] = tested on: NCI/ADR-RES ovarian
[32] = tested on: OVCAR-3 ovarian
[33] = tested on: OVCAR-4 ovarian
[34] = tested on: OVCAR-5 ovarian
[35] = tested on: OVCAR-8 ovarian
[36] = tested on: PC-3 prostate
[37] = tested on: RPMI-8226 leukemia
[38] = tested on: RXF 393 renal
[39] = tested on: SF-268 CNS
[40] = tested on: SF-295 CNS
[41] = tested on: SF-539 CNS
[42] = tested on: SK-MEL-2 melanoma
[43] = tested on: SK-MEL-28 melanoma
[44] = tested on: SK-MEL-5 melanoma
[45] = tested on: SK-OV-3 ovarian
[46] = tested on: SN12C renal
[47] = tested on: SNB-19 CNS
[48] = tested on: SR leukemia
[49] = tested on: SW-620 colon
[50] = tested on: TK-10 renal
[51] = tested on: U251 CNS
[52] = tested on: UACC-257 melanoma
[53] = tested on: UACC-62 melanoma
[54] = tested on: UO-31 renal
[55] = tested on: HT29 colon

What does the source list for `N#Cc1cc2c(=S)[nH]c(=S)[nH]c2nc1SCc1ccccc1`?
GI50 [1]: 28.1 µM; TGI [1]: > 100 µM; GI50 [2]: 39.9 µM; TGI [2]: > 100 µM; GI50 [3]: 32.3 µM; TGI [3]: > 100 µM; GI50 [4]: 27.4 µM; TGI [4]: > 100 µM; GI50 [5]: 47.2 µM; TGI [5]: > 100 µM; GI50 [6]: 10.1 µM; TGI [6]: 76.8 µM; GI50 [7]: 33.1 µM; TGI [7]: > 100 µM; GI50 [8]: 46.2 µM; TGI [8]: > 100 µM; GI50 [9]: 82.9 µM; TGI [9]: > 100 µM; GI50 [10]: 63.3 µM; TGI [10]: > 100 µM; GI50 [11]: 24.6 µM; TGI [11]: 79 µM; GI50 [12]: 29.8 µM; TGI [12]: > 100 µM; GI50 [13]: 33.4 µM; TGI [13]: > 100 µM; GI50 [14]: 30.4 µM; TGI [14]: 77.4 µM; GI50 [15]: 63.2 µM; TGI [15]: > 100 µM; GI50 [16]: 30.1 µM; TGI [16]: > 100 µM; GI50 [17]: 39.6 µM; TGI [17]: > 100 µM; GI50 [18]: 55.8 µM; TGI [18]: > 100 µM; GI50 [19]: 36.9 µM; TGI [19]: > 100 µM; GI50 [20]: 29.2 µM; TGI [20]: > 100 µM; GI50 [21]: 17.3 µM; TGI [21]: 43.4 µM; GI50 [22]: 58.2 µM; TGI [22]: > 100 µM; GI50 [23]: 50.6 µM; TGI [23]: > 100 µM; GI50 [24]: 21.7 µM; TGI [24]: 87.4 µM; GI50 [25]: 34.8 µM; TGI [25]: > 100 µM; GI50 [26]: 43.3 µM; TGI [26]: > 100 µM; GI50 [27]: 24.4 µM; TGI [27]: 94.3 µM; GI50 [28]: 32 µM; TGI [28]: > 100 µM; GI50 [29]: 38.8 µM; TGI [29]: > 100 µM; GI50 [30]: > 100 µM; TGI [30]: > 100 µM; GI50 [31]: 28.1 µM; TGI [31]: > 100 µM; GI50 [32]: 65.5 µM; TGI [32]: > 100 µM; GI50 [33]: 39.2 µM; TGI [33]: > 100 µM; GI50 [34]: 76.2 µM; TGI [34]: > 100 µM; GI50 [35]: 58.1 µM; TGI [35]: > 100 µM; GI50 [36]: 23.6 µM; TGI [36]: > 100 µM; GI50 [37]: 26.4 µM; TGI [37]: > 100 µM; GI50 [38]: 31.8 µM; TGI [38]: > 100 µM; GI50 [39]: 30.6 µM; TGI [39]: > 100 µM; GI50 [40]: 46.8 µM; TGI [40]: > 100 µM; GI50 [41]: 57.1 µM; TGI [41]: > 100 µM; GI50 [42]: 66.7 µM; TGI [42]: > 100 µM; GI50 [43]: 69.7 µM; TGI [43]: > 100 µM; GI50 [44]: 20.7 µM; TGI [44]: 52.3 µM; GI50 [45]: > 100 µM; TGI [45]: > 100 µM; GI50 [46]: 22.7 µM; TGI [46]: > 100 µM; GI50 [47]: > 100 µM; TGI [47]: > 100 µM; GI50 [48]: 41.3 µM; TGI [48]: > 100 µM; GI50 [49]: 48.9 µM; TGI [49]: > 100 µM; GI50 [50]: 12.3 µM; TGI [50]: 65 µM; GI50 [51]: 29.5 µM; TGI [51]: > 100 µM; GI50 [52]: 47.4 µM; TGI [52]: > 100 µM; GI50 [53]: 17 µM; TGI [53]: 54.6 µM; GI50 [54]: 44.8 µM; TGI [54]: > 100 µM

How did the GI50 [2] turn out when `CC1(C)CC(C(=O)OCCCCCCCCCCC[P+](c2ccccc2)(c2ccccc2)c2ccccc2)C(C)(C)N1O` (stereo unspecified) was run?
The GI50 was 0.353 µM.

What about the TGI [2] of the same compound?
Its TGI is 1.26 µM.

What about the GI50 [4] of the same compound?
The GI50 was 0.422 µM.

And the TGI [4]?
Its TGI is 1.48 µM.

What about the GI50 [5] of the same compound?
Its GI50 is 0.116 µM.

What about the TGI [5] of the same compound?
The TGI was 1.05 µM.

And the GI50 [6]?
The GI50 was 0.781 µM.

What about the TGI [6] of the same compound?
The TGI was 2.32 µM.

What about the GI50 [7] of the same compound?
The GI50 was 0.11 µM.

And the TGI [7]?
The TGI was 0.766 µM.

What about the GI50 [8] of the same compound?
The GI50 was 0.168 µM.

What about the TGI [8] of the same compound?
The TGI was 0.33 µM.

What about the GI50 [9] of the same compound?
The GI50 was 0.319 µM.

What about the TGI [9] of the same compound?
The TGI was 1.39 µM.

And the GI50 [11]?
Its GI50 is 0.324 µM.

And the TGI [11]?
The TGI was 1.52 µM.

And the GI50 [12]?
The GI50 was 0.185 µM.

What about the TGI [12] of the same compound?
Its TGI is 1.08 µM.

And the GI50 [13]?
The GI50 was 0.87 µM.

What about the TGI [13] of the same compound?
The TGI was 2.23 µM.

What about the GI50 [14] of the same compound?
The GI50 was 0.0355 µM.

What about the TGI [14] of the same compound?
The TGI was 0.13 µM.

What about the GI50 [15] of the same compound?
Its GI50 is 0.319 µM.

What about the TGI [15] of the same compound?
Its TGI is 0.904 µM.

What about the GI50 [17] of the same compound?
The GI50 was 0.354 µM.

And the TGI [17]?
The TGI was 1.84 µM.

What about the GI50 [55] of the same compound?
Its GI50 is 0.21 µM.

What about the TGI [55] of the same compound?
Its TGI is 1.17 µM.

And the GI50 [19]?
Its GI50 is 0.0852 µM.

What about the TGI [19] of the same compound?
The TGI was 0.784 µM.

What about the GI50 [20] of the same compound?
Its GI50 is 0.151 µM.

What about the TGI [20] of the same compound?
The TGI was 1.13 µM.

And the GI50 [21]?
The GI50 was 0.207 µM.

And the TGI [21]?
The TGI was 1.05 µM.

What about the GI50 [22] of the same compound?
The GI50 was 0.302 µM.

And the TGI [22]?
The TGI was 1.08 µM.

What about the GI50 [23] of the same compound?
The GI50 was 0.187 µM.

What about the TGI [23] of the same compound?
The TGI was 0.836 µM.

What about the GI50 [24] of the same compound?
The GI50 was 0.252 µM.

And the TGI [24]?
Its TGI is 0.849 µM.

And the GI50 [25]?
The GI50 was 0.274 µM.

And the TGI [25]?
Its TGI is 1.33 µM.

What about the GI50 [28] of the same compound?
Its GI50 is 0.271 µM.

And the TGI [28]?
Its TGI is 1.68 µM.

What about the GI50 [32] of the same compound?
The GI50 was 0.132 µM.

And the TGI [32]?
Its TGI is 0.835 µM.

What about the GI50 [33] of the same compound?
Its GI50 is 0.249 µM.

What about the TGI [33] of the same compound?
The TGI was 1.4 µM.

What about the GI50 [34] of the same compound?
Its GI50 is 0.386 µM.

And the TGI [34]?
Its TGI is 1.38 µM.

What about the GI50 [35] of the same compound?
Its GI50 is 0.319 µM.

And the TGI [35]?
The TGI was 1.72 µM.

And the GI50 [39]?
The GI50 was 0.394 µM.

What about the TGI [39] of the same compound?
The TGI was 1.54 µM.

And the GI50 [40]?
The GI50 was 0.211 µM.

What about the TGI [40] of the same compound?
Its TGI is 0.538 µM.

And the GI50 [41]?
Its GI50 is 0.324 µM.

What about the TGI [41] of the same compound?
Its TGI is 1.28 µM.

What about the GI50 [43] of the same compound?
The GI50 was 0.653 µM.

What about the TGI [43] of the same compound?
The TGI was 1.97 µM.

What about the GI50 [44] of the same compound?
Its GI50 is 0.15 µM.

What about the TGI [44] of the same compound?
Its TGI is 0.299 µM.

What about the GI50 [45] of the same compound?
The GI50 was 0.248 µM.

And the TGI [45]?
Its TGI is 0.711 µM.

What about the GI50 [47] of the same compound?
Its GI50 is 0.263 µM.

What about the TGI [47] of the same compound?
Its TGI is 1.24 µM.

And the GI50 [49]?
The GI50 was 0.344 µM.

And the TGI [49]?
Its TGI is 1.45 µM.

What about the GI50 [50] of the same compound?
Its GI50 is 0.362 µM.

And the TGI [50]?
The TGI was 1.67 µM.

And the GI50 [51]?
The GI50 was 0.0596 µM.

And the TGI [51]?
The TGI was 1.11 µM.

And the GI50 [52]?
The GI50 was 0.248 µM.

And the TGI [52]?
The TGI was 0.847 µM.

What about the GI50 [53] of the same compound?
Its GI50 is 0.253 µM.

What about the TGI [53] of the same compound?
Its TGI is 1.24 µM.

And the GI50 [54]?
Its GI50 is 0.972 µM.

And the TGI [54]?
Its TGI is 2.29 µM.
